# Patent publication US12281122B1, “PI3K inhibitors” (Cogent Biosciences, Inc., priority 2023, dated 2025)
# Key:
# [1] = test system: T47D (PI3Kα-H1047R) cell line; experiment: HTRF phospho-AKT(S473) cell assay in T47D cells; assay type: cell-based, human
# Summary of the method: (§1)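 Cells plated overnight (T47D in RPMI/10% FBS/0.2 units/mL insulin; SKBR3 in McCoy's 5A/10% FBS), then given 12-point 1:3 compound series (top 5 μM T47D, 10 μM SKBR3; ≤0.5% DMSO) for 2 h at 37° C. SKBR3 stimulated with 70 ng/ml PDGF-BB for final 15 min. Lysate pAKT(S473) by HTRF; IC50 calculated.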
# [2] = test system: SKBR3 (PI3Kα-Wild Type) cell line; experiment: HTRF phospho-AKT(S473) cell assay in SKBR3 cells; assay type: cell-based, human
# Summary of the method: as §1
# [3] = Homo sapiens; HTRF phospho-AKT(S473), T47D (PI3Kα-H1047R) cells, 2 hours compound incubation
# [4] = Homo sapiens, SK-BR-3; HTRF phospho-AKT(S473), SKBR3 (PI3Kα-Wild Type) cells, 2 hours compound incubation, PDGF-BB stimulated
# [5] = Homo sapiens; T47D (PI3Kα-H1047R) cells, HTRF phospho-AKT(S473), 2 hours compound incubation
# [6] = Homo sapiens, SK-BR-3; SKBR3 (PI3Kα-Wild Type) cells, HTRF phospho-AKT(S473), 2 hours compound incubation, PDGF-BB stimulated
Structure (SMILES),"IC50 [1, 3] [nM]","IC50 [2, 4] [nM]","IC50 [1, 5] [nM]","IC50 [2, 6] [nM]"
"COCCn1ncc(F)c1C1CCN(c2nc3c([C@@H](C)Nc4ccc(Cl)nc4C(=O)NS(C)(=O)=O)cc(C)cc3c(=O)n2C)CC1 [Compound 472, (R)-6-chloro-3-((1-(2-(4-(4-fluoro-1-(2-methoxyethyl)-1H-pyrazol-5-yl)piperidin-1-yl)-3,6-dimethyl-4-oxo-3,4-dihydroquinazolin-8-yl)ethyl)amino)-N-(methylsulfonyl) picolinamide]",< 250,≥ 5000,–,–
"Cc1cc([C@@H](C)Nc2ccc(Cl)nc2C(=O)NS(C)(=O)=O)c2nc(N3C[C@H]4CC(n5cc(C)cn5)C[C@@H]4C3)n(C)c(=O)c2c1 (single isomer, unassigned) [Compound 676, 6-chloro-3-(((R)-1-(3,6-dimethyl-2-((3aS*,6aS*)-5-(4-methyl-1H-pyrazol-1-yl)hexahydrocyclopenta [c]pyrrol-2(1H)-yl)-4-oxo-3,4-dihydroquinazolin-8-yl)ethyl)amino)-N-(methylsulfonyl) picolinamide]",250 to 500,≥ 5000,–,–
"Cc1cc([C@@H](C)Nc2ccc(Cl)nc2C(=O)NS(C)(=O)=O)c2nc(N3CCC[C@H](c4nccc(C)n4)C3)n(C)c(=O)c2c1 (relative stereo) [Compound 648, 6-chloro-3-(((R)-1-(3,6-dimethyl-2-((R*)-3-(4-methylpyrimidin-2-yl)piperidin-1-yl)-4-oxo-3,4-dihydroquinazolin-8-yl)ethyl)amino)-N-(methylsulfonyl) picolinamide]",1000 to 5000,≥ 5000,–,–
"Cc1cc([C@@H](C)Nc2ccc(Cl)nc2C(=O)NS(C)(=O)=O)c2nc(N3Cc4cnc(C)nc4C3)n(C)c(=O)c2c1 [Compound 612, (R)-6-chloro-3-((1-(3,6-dimethyl-2-(2-methyl-5,7-dihydro-6H-pyrrolo[3,4-d]pyrimidin-6-yl)-4-oxo-3,4-dihydroquinazolin-8-yl)ethyl)amino)-N-(methylsulfonyl) picolinamide]",250 to 500,1000 to 5000,–,–
"Cc1cc([C@@H](C)Nc2ccc(Cl)nc2C(=O)NS(C)(=O)=O)c2nc(N3C[C@@H]4[C@H](C3)[C@H]4c3ccnn3C)n(C)c(=O)c2c1 [Compound 296, 6-chloro-3-(((R)-1-(3,6-dimethyl-2-((1R,5S,6R)-6-(1-methyl-1H-pyrazol-5-yl)-3-azabicyclo[3.1.0]hexan-3-yl)-4-oxo-3,4-dihydroquinazolin-8-yl)ethyl)amino)-N-(methylsulfonyl) picolinamide]",–,–,250 to 500,1000 to 5000
"Cc1cc([C@@H](C)Nc2ccc(Cl)nc2C(=O)NS(C)(=O)=O)c2nc(-c3ccc(O[C@H]4CCN(C)CC4(F)F)nc3)n(C)c(=O)c2c1 [Compound 281, 6-chloro-3-(((R)-1-(2-(6-(((S)-3,3-difluoro-1-methylpiperidin-4-yl)oxy)pyridin-3-yl)-3,6-dimethyl-4-oxo-3,4-dihydroquinazolin-8-yl)ethyl)amino)-N-(methylsulfonyl) picolinamide]",–,–,< 250,1000 to 5000
"COc1cccc(N2CCN(c3nc4c([C@@H](C)Nc5ccc(Cl)nc5C(=O)NS(C)(=O)=O)cc(C)cc4c(=O)n3C)CC2)n1 [Compound 596, (R)-6-chloro-3-((1-(2-(4-(6-methoxypyridin-2-yl)piperazin-1-yl)-3,6-dimethyl-4-oxo-3,4-dihydroquinazolin-8-yl)ethyl)amino)-N-(methylsulfonyl) picolinamide]",250 to 500,≥ 5000,–,–
"Cc1cc([C@@H](C)Nc2ccc(Cl)nc2C(=O)NS(C)(=O)=O)c2nc(N3CCC(c4ncn(C)n4)CC3)n(C)c(=O)c2c1 [Compound 253, (R)-6-chloro-3-((1-(3,6-dimethyl-2-(4-(1-methyl-1H-1,2,4-triazol-3-yl)piperidin-1-yl)-4-oxo-3,4-dihydroquinazolin-8-yl)ethyl)amino)-N-(methylsulfonyl) picolinamide]",–,–,250 to 500,1000 to 5000
"Cc1cc([C@@H](C)Nc2ccc(Cl)nc2C(=O)NS(C)(=O)=O)c2nc(-c3ccc(O[C@@H]4CCNCC4(F)F)nc3)n(C)c(=O)c2c1 [Compound 333, 6-chloro-3-(((R)-1-(2-(6-(((R)-3,3-difluoropiperidin-4-yl)oxy)pyridin-3-yl)-3,6-dimethyl-4-oxo-3,4-dihydroquinazolin-8-yl)ethyl)amino)-N-(methylsulfonyl) picolinamide]",–,–,< 250,1000 to 5000
"Cc1cc([C@@H](C)Nc2ccc(Cl)nc2C(=O)NS(C)(=O)=O)c2nc(N3CCN(c4nc(C)ncc4F)CC3)n(C)c(=O)c2c1 [Compound 575, (R)-6-chloro-3-((1-(2-(4-(5-fluoro-2-methylpyrimidin-4-yl)piperazin-1-yl)-3,6-dimethyl-4-oxo-3,4-dihydroquinazolin-8-yl)ethyl)amino)-N-(methylsulfonyl) picolinamide]",< 250,1000 to 5000,–,–
"Cc1cc([C@@H](C)Nc2ccc(Cl)nc2C(=O)NS(C)(=O)=O)c2nc(N3CCC[C@@H](Oc4cncnc4)C3)n(C)c(=O)c2c1 [Compound 360, 6-chloro-3-(((R)-1-(3,6-dimethyl-4-oxo-2-((R)-3-(pyrimidin-5-yloxy)piperidin-1-yl)-3,4-dihydroquinazolin-8-yl)ethyl)amino)-N-(methylsulfonyl) picolinamide]",–,–,250 to 500,≥ 5000
"Cc1cc([C@@H](C)Nc2ccc(Cl)nc2C(=O)NS(C)(=O)=O)c2nc(-c3ccc(Nc4cnn(C)c4)c(F)c3)n(C)c(=O)c2c1 [Compound 806, (R)-6-chloro-3-((1-(2-(3-fluoro-4-((1-methyl-1H-pyrazol-4-yl)amino)phenyl)-3,6-dimethyl-4-oxo-3,4-dihydroquinazolin-8-yl)ethyl)amino)-N-(methylsulfonyl) picolinamide]",< 250,1000 to 5000,–,–
"Cc1cc([C@@H](C)Nc2ccc(Cl)nc2C(=O)NS(C)(=O)=O)c2nc(N3Cc4n[nH]c(N)c4C3)n(C)c(=O)c2c1 [Compound 148, (R)-3-((1-(2-(3-amino-2,6-dihydropyrrolo[3,4-c]pyrazol-5(4H)-yl)-3,6-dimethyl-4-oxo-3,4-dihydroquinazolin-8-yl)ethyl)amino)-6-chloro-N-(methylsulfonyl) picolinamide]",–,–,1000 to 5000,≥ 5000
"Cc1cc([C@@H](C)Nc2ccc(Cl)nc2C(=O)NS(C)(=O)=O)c2nc(N3CCC(c4cn(C)nn4)CC3)n(C)c(=O)c2c1 [Compound 480, (R)-6-chloro-3-((1-(3,6-dimethyl-2-(4-(1-methyl-1H-1,2,3-triazol-4-yl)piperidin-1-yl)-4-oxo-3,4-dihydroquinazolin-8-yl)ethyl)amino)-N-(methylsulfonyl) picolinamide]",< 250,1000 to 5000,–,–
"Cc1cc([C@@H](C)Nc2ccc(Cl)nc2C(=O)NS(C)(=O)=O)c2nc(N3CC[C@@H](Oc4cccnc4)C3)n(C)c(=O)c2c1 [Compound 345, 6-chloro-3-(((R)-1-(3,6-dimethyl-4-oxo-2-((R)-3-(pyridin-3-yloxy)pyrrolidin-1-yl)-3,4-dihydroquinazolin-8-yl)ethyl)amino)-N-(methylsulfonyl) picolinamide]",–,–,< 250,1000 to 5000
